These results are taken from ChEMBL document CHEMBL3351597, “Synthesis and activity of new triphenylphosphonium derivatives of betulin and betulinic acid against Schistosoma mansoni in vitro and in vivo” (Bioorg Med Chem, 2014).

Molecules are shown by their SMILES. Calls of active or inactive are those of the source. The calls are words filed in the database; no cut-off is given here.

The subject of experiment [1] is Schistosoma mansoni. As to the kind of experiment: Antischistosomal activity against newly transformed Schistosoma mansoni assessed as decrease in viability after 72 hrs. It counts as functional, organism-based.
For experiment [2], the system named is Schistosoma mansoni. The experiment is described as follows: Antischistosomal activity against newly transformed Schistosoma mansoni assessed as death at 8.33 microg/ml after 72 hrs. The experiment is classed as functional, organism-based.
The test system of the next experiment is L6. The experiment is described as follows: Cytotoxicity against rat L6 cells after 24 hrs by Resazurin dye. It counts as cell-based. The settings on record: L6, 24 h. Background: The colour change of resazurin is a common sign of viable cells or microbes.
Experiment [3] relates to Schistosoma mansoni. As to the kind of experiment: Antischistosomal activity against Schistosoma mansoni infected in NMRI mouse assessed as mouse cured at 400 mg/kg, po treated after 49 days of infection measured after 21 days post treatment. It counts as functional, organism-based. Also on record: dose 400 mg/kg.
In experiment [4] the test system is Schistosoma mansoni. As to the kind of experiment: Antischistosomal activity against Schistosoma mansoni infected in NMRI mouse assessed as reduction of total worm burden at 400 mg/kg, po treated after 49 days of infection measured after 21 days post treatment. It counts as functional.
Experiment [5] relates to Schistosoma mansoni. As to the kind of experiment: Antischistosomal activity against Schistosoma mansoni infected in NMRI mouse assessed as reduction of female worm burden at 400 mg/kg, po treated after 49 days of infection measured after 21 days post treatment. The experiment is classed as functional.
Experiment [6] concerns Schistosoma mansoni. As to the kind of experiment: Antischistosomal activity against newly transformed Schistosoma mansoni assessed as death at 2.78 microg/ml after 72 hrs. It counts as functional, organism-based.

A word on the IC50: it is the concentration needed to halve the response being measured. With `COC(=O)[C@]12CC[C@@H](C(C)C)[C@@H]1[C@H]1CC[C@@H]3[C@@]4(C)C[C@H](CCC[P+](c5ccccc5)(c5ccccc5)c5ccccc5)[C@H](OC(C)=O)C(C)(C)[C@@H]4CC[C@@]3(C)[C@]1(C)CC2.[Br-]`, in the experiment with Schistosoma mansoni [1], the IC50 was found to be 1.46 µg/mL. Moreover, the result in the experiment on Schistosoma mansoni [2] was Active.
As for `COC(=O)[C@]12CC[C@@H](C(C)CI)[C@@H]1[C@H]1CC[C@@H]3[C@@]4(C)C[C@H](CCC[P+](c5ccccc5)(c5ccccc5)c5ccccc5)[C@H](OC(C)=O)C(C)(C)[C@@H]4CC[C@@]3(C)[C@]1(C)CC2.[I-]` (stereo partly drawn), the figures for the IC50 in the experiment on Schistosoma mansoni [1] and in the experiment on L6 were 6.35 µg/mL and 1.65 µg/mL, respectively.
Take `COC(=O)[C@]12CC[C@@H](C(C)C)[C@@H]1[C@H]1CC[C@@H]3[C@@]4(C)C[C@H](CCC[P+](c5ccccc5)(c5ccccc5)c5ccccc5)[C@@H](OC(C)=O)C(C)(C)[C@@H]4CC[C@@]3(C)[C@]1(C)CC2.[Br-]`: in the experiment on Schistosoma mansoni [1], the IC50 is 1.37 µg/mL. The result in the experiment with Schistosoma mansoni [2] was Active.
Regarding `CC(=O)O[C@H]1[C@@H](CCC[P+](c2ccccc2)(c2ccccc2)c2ccccc2)C[C@]2(C)[C@H]3CC[C@@H]4[C@H]5[C@H](C(C)C)CC[C@]5(C(=O)OCc5ccccc5)CC[C@@]4(C)[C@]3(C)CC[C@H]2C1(C)C`, the outcome in the experiment on Schistosoma mansoni [1] was Active.
On to `COC(=O)[C@]12CC[C@@H](C(C)C)[C@@H]1[C@H]1CC[C@@H]3[C@@]4(C)C[C@H](CCC[P+](c5ccccc5)(c5ccccc5)c5ccccc5)[C@@H](O)C(C)(C)[C@@H]4CC[C@@]3(C)[C@]1(C)CC2`, for which, in the experiment with Schistosoma mansoni [1], the outcome was Active.
The inhibition in vivo is the percentage by which the read-out fell short of the control. Consider `C=C(C[P+](c1ccccc1)(c1ccccc1)c1ccccc1)[C@@H]1CC[C@]2(C(=O)OC)CC[C@]3(C)[C@H](CC[C@@H]4[C@@]5(C)CC[C@H](OC(C)=O)C(C)(C)[C@@H]5CC[C@]43C)[C@@H]12.[Br-]`, for which, in the experiment with Schistosoma mansoni [3], the outcome was inactive. Further, the values for the inhibition in vivo at 400 mg/kg with Schistosoma mansoni [4] and with Schistosoma mansoni [5] were 21.9% and 24.8%, respectively. The IC50 in the experiment on Schistosoma mansoni [1] was 0.76 µg/mL. The outcome in the experiment with Schistosoma mansoni [6] and with Schistosoma mansoni [2] was Active.
On to `C=C(C[P+](c1ccccc1)(c1ccccc1)c1ccccc1)[C@@H]1CC[C@]2(COC(C)=O)CC[C@]3(C)[C@H](CC[C@@H]4[C@@]5(C)CC[C@H](OC(C)=O)C(C)(C)[C@@H]5CC[C@]43C)[C@@H]12.[Br-]`, for which the result in the experiment on Schistosoma mansoni [3] was inactive. Moreover, the inhibition in vivo at 400 mg/kg with Schistosoma mansoni [4] came to 22.2%; in the experiment with Schistosoma mansoni [5], 20.3%. The IC50 in the experiment on Schistosoma mansoni [1] and with L6 was 0.64 µg/mL each time. The result in the experiment with Schistosoma mansoni [6] and with Schistosoma mansoni [2] was Active.
In the case of `COC(=O)[C@]12CC[C@@H](C(C)C)[C@@H]1[C@H]1CC[C@@H]3[C@@]4(C)C[C@H](CCC[P+](c5ccccc5)(c5ccccc5)c5ccccc5)[C@H](O)C(C)(C)[C@@H]4CC[C@@]3(C)[C@]1(C)CC2`, the outcome in the experiment on Schistosoma mansoni [1] was Active.
Still for that read-out and setting: in the case of `CC(=O)O[C@H]1[C@@H](CCC[P+](c2ccccc2)(c2ccccc2)c2ccccc2)C[C@]2(C)[C@H]3CC[C@@H]4[C@H]5[C@H](C(C)C)CC[C@]5(C(=O)O)CC[C@@]4(C)[C@]3(C)CC[C@H]2C1(C)C` it was “Active”.
